Columns and labels:
[1] = oral pharmacokinetics in male CD1 mice (plasma, LC/MS/MS); assay type: in vivo; settings: oral 10 mg/kg; for F: fraction of the dose that enters systemic circulation
Human LDHA = Human LDHA (Homo sapiens (Human), UniProt P00338); assay: human LDHA primary biochemical assay (resazurin/diaphorase coupled, fluorescence); settings: LDHA inhibitory activity, activity level based on IC50 (Table 7)
From the text: Test compounds were placed in a Greiner Bio-One (Monroe, N.C.) 1536-well black solid bottom assay plate. 200 millimolar (mM) Tris HCl, pH 7.4, 100 micromolar […] EDTA and 0.01% TWEEN-20™, final concentration, was used as the assay buffer. The LDHA reagent was 2 nanomolar (nM) Human LDHA (Meridian Life Science, Inc., Memphis, Tenn.), final concentration, in assay buffer.

MiaPaCa2 cells = assay: cell-based HT lactate assay, colorimetric/fluorometric detection (inhibition of lactate production); settings: Homo sapiens, MIA PaCa-2; class symbols, 0 to 3 pluses

Compound | IC50 (Human LDHA) [nM] | IC50 (MiaPaCa2 cells) [nM] | AUC(0-t) ([1]; mouse, plasma) [ng·h/mL] | Cmax ([1]; mouse, plasma) [ng/mL] | F [1] [%]
NS(=O)(=O)c1ccc(Cc2c(-c3cccc(-c4ccccc4)c3)nn(-c3nc(C(=O)O)cs3)c2C(F)(F)F)cc1 [Compound 42, 2-(3-([1,1′-biphenyl]-3-yl)-4-(4-sulfamoylbenzyl)-5-(trifluoromethyl)-1H-pyrazol-1-yl)thiazole-4-carboxylic acid] | – | – | 1210 | 159 | 34
CCOC(=O)c1csc(-n2nc(-c3cccc(-c4ccccc4)c3)c(Cc3ccc(S(N)(=O)=O)cc3)c2C(F)(F)F)n1 [Compound 141, ethyl 2-(3-([1,1′-bipheny]-3-yl)-4-(4-sulfamoylbenzyl)-5-(trifluoromethyl)-1H-pyrazol-1-yl)thiazole-4-carboxylate] | – | – | – | – | 69
NS(=O)(=O)c1ccc(Cc2c(-c3cc(F)cc(-c4cccc(F)c4)c3)nn(-c3nc(C(=O)O)cs3)c2CC2CC2)cc1 [Compound 523, 2-(5-(cyclopropylmethyl)-3-(3′,5-difluoro-[1,1′-biphenyl]-3-yl)-4-(4-sulfamoylbenzyl)-1H-pyrazol-1-yl)thiazole-4-carboxylic acid] | 100 to 1000 | 1000 to 10000 | – | – | –
NS(=O)(=O)c1ccc(Cc2c(-c3cccc(Oc4cccc(F)c4)c3)nn(-c3nc(C(=O)O)cs3)c2CC2CC2)cc1 [Compound 526, 2-(5-(cyclopropylmethyl)-3-(3-(3-fluorophenoxy)phenyl)-4-(4-sulfamoylbenzyl)-1H-pyrazol-1-yl)thiazole-4-carboxylic Acid] | 100 to 1000 | 10000 to 57000 | – | – | –
CC(C)(C)NC(=O)c1cc(-c2nn(-c3nc(C(=O)O)cs3)c(CC3CC3)c2Cc2ccc(S(N)(=O)=O)c(F)c2)ccc1F [Compound 543, 2-(3-(3-(tert-butylcarbamoyl)-4-fluorophenyl)-5-(cyclopropylmethyl)-4-(3-fluoro-4-sulfamoylbenzyl)-1H-pyrazol-1-yl)thiazole-4-carboxylic acid] | < 100 | 1000 to 10000 | – | – | –
NS(=O)(=O)c1ccc(Cc2c(-c3ccc(F)c(C(=O)NCc4ccccc4)c3)nn(-c3nc(C(=O)O)cs3)c2CC2CC2)cc1F [Compound 544, 2-(3-(3-(benzylcarbamoyl)-4-fluorophenyl)-5-(cyclopropylmethyl)-4-(3-fluoro-4-sulfamoylbenzyl)-1H-pyrazol-1-yl)thiazole-4-carboxylic acid] | < 100 | 1000 to 10000 | – | – | –
NS(=O)(=O)c1ccc(Cc2c(-c3ccc(F)c(C(=O)N4CCCC4)c3)nn(-c3nc(C(=O)O)cs3)c2CC2CC2)cc1F [Compound 545, 2-(5-(cyclopropylmethyl)-3-(4-fluoro-3-(pyrrolidine-1-carbonyl)phenyl)-4-(3-fluoro-4-sulfamoylbenzyl)-1H-pyrazol-1-yl)thiazole-4-carboxylic acid] | < 100 | 10000 to 57000 | – | – | –

Further lines, with some results ahead:

IC50 (Human LDHA) [nM] | IC50 (MiaPaCa2 cells) [nM] | Compound | AUC(0-t) ([1]; mouse, plasma) [ng·h/mL] | Cmax ([1]; mouse, plasma) [ng/mL] | F [1] [%]
< 100 | < 1000 | NS(=O)(=O)c1ccc(Cc2c(-c3ccc(F)c(Oc4cccc(F)c4)c3)nn(-c3nc(C(=O)O)cs3)c2CC2CC2)cc1F [Compound 509, 2-(5-(cyclopropylmethyl)-3-(4-fluoro-3-(3-fluorophenoxy)phenyl)-4-(3-fluoro-4-sulfamoylbenzyl)-1H-pyrazol-1-yl)thiazole-4-carboxylic Acid] | – | – | –
< 100 | < 1000 | Cc1ccc(Oc2cc(-c3nn(-c4nc(C(=O)O)cs4)c(CC4CC4)c3Cc3ccc(S(N)(=O)=O)c(F)c3)ccc2F)cc1 [Compound 510, 2-(5-(cyclopropylmethyl)-3-(4-fluoro-3-(p-tolyloxy)phenyl)-4-(3-fluoro-4-sulfamoylbenzyl)-1H-pyrazol-1-yl)thiazole-4-carboxylic Acid] | – | – | –
< 100 | 1000 to 10000 | NS(=O)(=O)c1ccc(Cc2c(-c3ccc(F)c(Oc4ccc(F)cc4)c3)nn(-c3nc(C(=O)O)cs3)c2CC2CC2)cc1F [Compound 511, 2-(5-(cyclopropylmethyl)-3-(4-fluoro-3-(4-fluorophenoxy)phenyl)-4-(3-fluoro-4-sulfamoylbenzyl)-1H-pyrazol-1-yl)thiazole-4-carboxylic Acid] | – | – | –
< 100 | < 1000 | NS(=O)(=O)c1ccc(Cc2c(-c3ccc(F)c(Oc4ccc(C(F)(F)F)cc4)c3)nn(-c3nc(C(=O)O)cs3)c2CC2CC2)cc1F [Compound 512, 2-(5-(cyclopropylmethyl)-3-(4-fluoro-3-(4-(trifluoromethyl)phenoxy)phenyl)-4-(3-fluoro-4-sulfamoylbenzyl)-1H-pyrazol-1-yl)thiazole-4-carboxylic Acid] | – | – | –
< 100 | 1000 to 10000 | NS(=O)(=O)c1ccc(Cc2c(-c3ccc(F)c(OCc4ccc(F)cc4)c3)nn(-c3nc(C(=O)O)cs3)c2CC2CC2)cc1 [Compound 527, 2-(5-(cyclopropylmethyl)-3-(4-fluoro-3-((4-fluorobenzyl)oxy)phenyl)-4-(4-sulfamoylbenzyl)-1H-pyrazol-1-yl)thiazole-4-carboxylic Acid] | – | – | –
< 100 | < 1000 | NS(=O)(=O)c1ccc(Cc2c(-c3ccc(F)c(OCc4cccc(F)c4)c3)nn(-c3nc(C(=O)O)cs3)c2CC2CC2)cc1F [Compound 528, 2-(5-(cyclopropylmethyl)-3-(4-fluoro-3-((3-fluorobenzyl)oxy)phenyl)-4-(3-fluoro-4-sulfamoylbenzyl)-1H-pyrazol-1-yl)thiazole-4-carboxylic Acid] | – | – | –
< 100 | 1000 to 10000 | NS(=O)(=O)c1ccc(Cc2c(-c3ccc(F)c(C(F)(F)F)c3)nn(-c3nc(C(=O)O)cs3)c2CC2CC2)cc1F [Compound 542, 2-(5-(cyclopropylmethyl)-3-(4-fluoro-3-(trifluoromethyl)phenyl)-4-(3-fluoro-4-sulfamoylbenzyl)-1H-pyrazol-1-yl)thiazole-4-carboxylic acid] | – | – | –

— patent publication US10961200B2, “Small molecule inhibitors of lactate dehydrogenase and methods of use thereof” (THE UNITED STATES OF AMERICA, AS REPRESENTED BY THE …, priority 2014, dated 2021)
